Here are results for two substances from patent US8912136B2, “Methods and compositions related to clot-binding compounds” (Sanford-Burnham Medical Research Institute, priority 2009, dated 2014).

Data set [1] can be described thus: Peptide stability in vivo (NW-bound peptide recovered from blood, mass spectrometry). On the set-up: species or system mouse. As for the experimental part:
The peptides were conjugated with a linker that bridges the NW and a cysteine residue on the peptide, forming a disulfide with the OPSS group. The peptide-coated NW were injected into animals, and blood was collected 15 minutes and 3 hours after the injection. The plasma was separated and NW were collected by ultracentrifugation (100,000×g for 10 minutes at 4° C.). Proteins bound to the NW were removed by incubation with glycine-HCl, pH 2.8 on a magnetic LS columns (MACS separation columns, Miltenyi Biotec, Bergisch Gladbach, Germany). The peptides were cleaved from the NW by incubating with 10 mM dithiothreitol for 30 minutes at room temperature. The iron oxide was separated from the peptide by ultracentrifugation (100,000×g for 10 minutes at 4° C.) and the supernatant fractions containing the peptide were analyzed by matrix-assisted laser desorption ionization-time of flight (MALDI-TOF) mass spectrometry.

The next data set has as its system mouse plasma clots. Kind of data set: Nanoparticle binding to plasma clots in vitro. As for the experimental part:
(§1) Phage and nanoparticle binding to clots. Phage binding to clotted plasma proteins was determined as described (Pilch 2006). CREKA-SPIO and control SPIO were added to freshly formed plasma clots in the presence or absence of free CREKA peptide. After 10 min incubation, the clots were washed 4 times in PBS, transferred to a new tube and digested in 100 μl concentrated nitric acid. The digested material was diluted in 2 ml distilled water and the iron concentration was determined using inductively coupled plasma-optical emission spectroscopy (ICP-OES, PerkinElmer, Norwalk, Conn.).

A further data set relates to B16F1 melanomas. The data set is described as follows: CREKA peptide homing in fibrinogen null mice and normal littermates. As to conditions: intravenous. The format is in vivo, mouse. As for the experimental part: Tumors contain a meshwork of clotted plasma proteins in the tumor stroma and the walls of vessels, but no such meshwork is detectable in normal tissues (Dvorak 1985; Abe 1999; Pilch 2006). The mesh-like pattern produced by the CREKA peptide in tumors prompted the study of whether clotted plasma proteins can be the target of this peptide. The peptide was tested in fibrinogen knockout mice, which lack the fibrin meshwork in their tumors. […] Its structure makes it an attractive peptide to use in nanoparticle targeting because, unlike other clot-binding peptides, which are cyclic 10 amino-acid peptides (Pilch 2006), CREKA is linear and contains only 5 amino acids. Moreover, the sulfhydryl group of the single cysteine residue is not required to provide binding activity and can be used to couple the peptide to other moieties.
Phage screening, tumors and peptides. In vivo screening of a peptide library with the general structure of CX7C (SEQ ID NO: 4), where C is cysteine and X is any amino acid, was carried out as described (Oh 2004) using 65- to 75-day-old transgenic MMTV PyMT mice (Hutchinson 2000). These mice express the polyoma virus middle T antigen (MT) under the transcriptional control of the mouse mammary tumor virus (MMTV), leading to the induction of multi-focal mammary tumors in 100% of carriers. […]

The subject of data set [2] is orthotopic 22Rv1 xenograft tumors. Kind of data set: In vivo homing of FAM-labeled CREKA and methylated CREKA peptides. On the set-up: species or system mouse. On the procedure: Tumor accumulation of CREKA peptide and its N-methylated and C-methylated variants. The accumulation of N-methylated and C-methylated derivatives of CREKA was measured in mice bearing orthotropic 22Rv-1 xenograft tumors. The mice were intravenously injected with 200 μg of FAM-conjugated CREKA or methylated CREKA peptides derivatives. The peptides were allowed to circulate for 3 hrs. The mice were then perfused through the heart with PBS, and organs were collected and the fluorescence was measured under UV light. The fluorescence was analyzed with Image J software. Most N/C-methylated CREKA analogs produced stronger fluorescence compared to the unmodified CREKA. […] In FIG. 10B the enhanced fluorescence of CR(NMe)EKA is shown in the tumor compared to both CREKA and C(NMe)REKA peptide. It is shown that FAM-labeled CREKA peptide in which the glutamic acid is N-methylated accumulates in tumor tissue more strongly than unmodified CREKA.
Orthotopic prostate cancers were used when they reached 0.5-1 cm in size. Synthetic peptides labeled with fluorescein (approximately 200 μg) were intravenously injected into tumor-bearing mice and allowed to circulate for 15 minutes to 3 hours. The mice were perfused with PBS through the heart under anesthesia, and tissues were collected and observed under UV light (Illumatool Bright Light System LT-9900, Lightools Research, Encinitas, Calif.), and then processed for immunofluorescence or immunohistochemistry.

Another data set has as its system PyMT tumors. The data set is described as follows: Tumor homing of intravenously injected fluorescent CREKA peptide. The format is in vivo, mouse. As to conditions: intravenous; fluorescent dye at N-terminus; minutes to hours after the injection. The text has this: (§2) CREKA peptide. A tumor-homing peptide was used to construct targeted nanoparticles. […] The most frequently represented peptide sequence in the selected phage preparation was CREKA (cys-arg-glu-lys-ala; SEQ ID NO:1). The CREKA peptide was synthesized with a fluorescent dye attached to the N-terminus and the in vivo distribution of the peptide was studied in tumor-bearing mice. […] The peptide formed a distinct meshwork in the tumor stroma (FIG. 5), and it also highlighted the blood vessels in the tumors.
(§3) Phage screening, tumors and peptides. In vivo screening of a peptide library with the general structure of CX7C (SEQ ID NO: 4), where C is cysteine and X is any amino acid, was carried out as described (Oh 2004) using 65- to 75-day-old transgenic MMTV PyMT mice (Hutchinson 2000). These mice express the polyoma virus middle T antigen (MT) under the transcriptional control of the mouse mammary tumor virus (MMTV), leading to the induction of multi-focal mammary tumors in 100% of carriers. MDA-MB-435 tumors in nude mice and peptide synthesis have been described (Laakkonen 2002; Laakkonen 2004). B16F1 murine melanoma tumors were grown in fibrinogen null mice (Suh 1995) and their normal littermates and used when they reached 0.5-1 cm in size (Pilch 2006).

For data set [3], the system named is MDA-MB-435 human breast cancer xenografts. The description is as above. The format is in vivo, mouse.
Excerpt: as §2, §3

The target in a further data set is plasma clots. Kind of data set: Binding to plasma clots (affinity). The conditions noted are these: data not shown.
The subject of data set [4] is 22Rv1 orthotopic human prostate cancer tumors. Kind of data set: Homing and clotting of peptide-coated iron oxide nanoworms/SPIO. The format is in vivo, mouse. The conditions noted are these: intravenous, Example 2. On the procedure: To analyze NW biodistribution, mice bearing orthotopic 22Rv1 tumors were injected into the tail vein (5 mg of iron per kg body weight). In homing experiments, the mice were euthanized 5-6 hours after the injection by cardiac perfusion with PBS under anesthesia, and organs were dissected and analyzed for particle homing. In tumor treatment experiments, nude mice bearing 2 week-old 22Rv-1 or LAPC9 orthotopic xenografts (typically about 200-250 mm^3 in tumor volume) were intravenously injected with NW in 150 μl PBS or PBS as a control. The NW were injected every other day for 14 days. The total cumulative dose was 35 mg iron/kg. At the end of the treatment, the mice were perfused with PBS under anesthesia, and the tumors were harvested. Tumor volume was calculated using the following formula: volume (mm3)=(d2×D)/2, where d and D are the smallest and largest tumor diameters, respectively. […] The primary antibodies were detected with Alexa 647 goat anti-rat, and 647 donkey anti-goat secondary antibodies (1:1000; Molecular Probes, Eugene, Oreg.). […] The primary antibody was detected with biotinylated anti-mouse IgG and Vectastain ABC kit (Vector Laboratories, Burlingame, Calif.). […] To quantify the homing area of fibrin(ogen) within tumors the stained section were scanned with the Scanscope CM-1 scanner and analyzed with the ImageScope software41 (Aperio Technologies, Vista, Calif.).

Data set [5] can be described thus: Nanoparticle clearance (blood half-life). The format is in vivo, mouse. On the procedure: Nanoparticle injections. For intravenous injections, the animals were anesthetized with intraperitoneal Avertin, and liposomes (2 μmol DSPC) and/or nanoparticles (1-4 mg Fe/kg body weight) were injected into the tail vein. The animals were sacrificed 5-24 h post-injection by cardiac perfusion with PBS under anesthesia, and organs were dissected and analyzed for particle homing. To suppress liver macrophages, mice were intravenously injected with liposomal clodronate suspension (100 μl per mouse), and the mice were used for experiments 24 hours later. Nanoparticle clearance. Heparinized capillaries were used to draw 50 μA of blood from the periorbital plexus at different times after nanoparticle injection, the blood was centrifuged at 300 g for 2 min, and a 10 μA aliquot of platelet-rich plasma was diluted into 600 μl 1M Tris solution, pH 8.4. Fluorescence was determined on a PerkinElmer (Norwalk, Conn.) LS50B spectrofluorometer, and plotted as a function of the time the particles had circulated.

In data set [6] the test system is MDA-MB-435 human breast cancer xenograft tumors. The data set is described as follows: Nanoparticle/liposome tumor homing and clotting in tumor vessels. The format is in vivo, mouse. As for the experimental part: Nanoparticle injections. For intravenous injections, the animals were anesthetized with intraperitoneal Avertin, and liposomes (2 μmol DSPC) and/or nanoparticles (1-4 mg Fe/kg body weight) were injected into the tail vein. The animals were sacrificed 5-24 h post-injection by cardiac perfusion with PBS under anesthesia, and organs were dissected and analyzed for particle homing. To suppress liver macrophages, mice were intravenously injected with liposomal clodronate suspension (100 μl per mouse), and the mice were used for experiments 24 hours later.
Intravital microscopy. Tumor blood flow in MDA-MB 435 xenograft-bearing mice was observed by intravital microscopy. Mice were pre-injected with Ni-liposomes and 5×10^8 of DiI-labeled erythrocytes. A skin flap was moved aside to expose the tumors, and the mice were intravenously injected with 4 mg/kg of fluorescein-CREKA-SPIO (time “0”). The tumors were scanned with IV-100 intravital laser scanning microscope (Olympus Corp., Tokyo, Japan) using an IV-OB35F22W29 MicroProbe objective (Olympus Corp., Tokyo, Japan). Movies were recorded at 10 min intervals up to 120 min post-injection.
Magnetic measurements of the tissue samples using Superconducting Quantum Interference Device (SQUID) magnetometer. Tissue samples were frozen immediately upon collection, lyophilized, weighed, and placed in gelatin capsules. The capsules were inserted into the middle of transparent plastic straws for magnetic measurements made using a Quantum Design MPMS2 SQUID magnetometer (San Diego, Calif.) operated at 150 K. The samples were exposed to direct current magnetic fields in stepwise increments up to one Tesla. Corrections were made for the diamagnetic contribution of tissue, capsule and straw.

A further data set deals with human plasma clots. The data set is described as follows: Nanoparticle binding to plasma clots in vitro. On the procedure:
as §1

Setting [7] is: intravenous, no decoy pretreatment.

pKd: −log10 of the molar value. Where no end group is shown, it is not given here. FAM = 5(6)-carboxyfluorescein; Ahx = NCCCCCC(=O)O

For the substance “cys-arg-glu-lys-ala ({FAM-Ahx}-CREKA; not fully specified; printed as cys-arg-glu-lys-ala)”, the “peptide abundance in blood samples” value in data set [1] (after 15 minutes of circulation) is “equally abundant”. Further, the “peptide in blood samples” value in data set [1] (after 3 hours) is “undetectable”. Also, the “effect of free peptide on CREKA-SPIO binding to clotted plasma proteins” value in the data set with mouse plasma clots (FIG. 1D) is given as “inhibited”. In addition, the “accumulation in tumors grown in fibrinogen null mice” value with B16F1 melanomas (fibrinogen null mice) is “failed to accumulate”. Besides, in the data set with B16F1 melanomas (normal littermates of the null mice), the “accumulation in tumors grown in normal littermates” value is “formed a brightly fluorescent meshwork”. The “fluorescence in the tumors” value in data set [2] (30 minutes after the injection) was “equally strong fluorescence”. Further, the “decrease of tumor fluorescence” value in data set [2] (after 3 hours) is reported as 70%. Also, the “CREKA peptide detection in tumors” value in the data set on PyMT tumors is recorded as “readily detectable”; in data set [3] (intravenous, fluorescent dye at N-terminus, minutes to hours after the injection), “readily detectable”. The “whole animal imaging: elimination and liver accumulation” value in data set [3] (30 μg Alexa Fluor 647-labeled CREKA, 6 hours) was “excreted into the urine and does not accumulate in the liver”. In addition, the “CREKA peptide detection in normal tissues” value in [3] (intravenous, fluorescent peptide) is given as “essentially undetectable”. Further, at plasma clots, the pKd was 5.22.
As for “CREKA-SPIO: fluorescein-labeled CREKA coupled onto 50 nm superparamagnetic amino dextran-coated iron oxide nanoparticles (not fully specified (N-terminus); also: conjugated to dextran-coated superparamagnetic iron oxide nanoparticles (SPIO))”, the tumor homing result in data set [4] is “effectively home to 22Rv-1 tumors”. For the same substance, the “prolongation in particle half-life” value in data set [5] (after depleting RES macrophages with liposomal clodronate) was roughly 5 fold. Also, the “blood half-life and tumor homing after decoy particles” value in data set [5] (plain liposomes as decoy particles) was “prolonged the blood half-life”. In data set [6] (Cy7-labeled, near infrared), the “whole-body scan tumor signal” value is listed as “effectively accumulated in tumors”. For the same substance, the “intravital confocal microscopy of tumor blood vessels” value in data set [6] (DiI-labeled erythrocytes as flow marker, 4 mg/kg) is “time-dependent clot formation and obstruction of blood flow”. Moreover, the “accumulation in Ni-liposome-pretreated compared to PBS-pretreated mice” value in data set [6] (SQUID tumor magnetization and fluorescence signal) is listed as “about 6 fold”. Besides, the “reduction of tumor accumulation by heparin” value in [6] (SQUID, heparin prior to injection) is on record as “more than 50%”. Besides, the “tumor vessel lumens filled with fluorescent masses (occlusion)” value in data set [6] (after liposome pretreatment) is on record as “up to 20%”. Moreover, the “effect of thrombocytopenia on homing” value in [6] (anti-CD41 monoclonal antibody) is “no noticeable effect”. In addition, in [6] (heparin pretreatment), the “heparin effect on intravascular clotting” value is recorded as “essentially eliminated” and the “heparin effect on number of vessels with nanoparticles bound to the vessel walls” value was “did not significantly reduce”. Moreover, in data set [6] (setting [7]), the accumulation in tumor entry was “did not accumulate effectively” and the “particles in reticuloendothelial system (RES) tissues” value is given as “high concentration of particles”. The “tumor homing after Ni-liposome pretreatment” value in data set [6] (pretreatment 5 min or 48 h prior) was “greatly increased the tumor homing”. The “localization of nanoparticle-induced clotting” value in data set [6] (tumor versus kidneys, lungs, liver) is “essentially confined to tumor vessels”. In the data set with mouse plasma clots, the “binding to plasma clots” value is “bound to mouse and human plasma clots”. In addition, in the data set on human plasma clots, the “binding to plasma clots” value is “bound to mouse and human plasma clots”.

As a reminder, the pKd is the negative decadic logarithm of the Kd, by convention in mol/L. Higher therefore signals a low Kd.
